Experiments:
[1] = target: T1, guinea pig liver transglutaminase (UniProt P08587); test: Fluorescence assay of transglutaminase-catalyzed cross-linking of 5-(biotinamido)pentylamine to C. albicans germ tube surfaces; assay type: biochemical; details: C. albicans SC5314 germ tubes; EGTA 20 mM (FIG. 2B)
T1 construct: guinea pig liver transglutaminase (8.5 μg); from tissue; host or cells: guinea pig liver
Protocol: To detect germ tube surface proteins serving as glutamine donors in transglutaminase-catalyzed cross-linking reactions, a fluorescence assay using a biotinylated lysine analogue as the primary amine acceptor and liver transglutaminase was developed.
Washed M199-germinated C. albicans cells (10^8/ml), guinea pig liver transglutaminase (8.5 μg), and 5-(biotinamido)pentylamine (30 μM) (Pierce) were incubated in reaction buffer 1 (400 μl) (100 mM Tris-Cl pH 7.5, 5 mM CaCl2, 1 mM DTT, 2 mM EDTA) for 15 minutes at 37° C. Reactions were stopped with EDTA (10 mM), germ tubes were washed with distilled water, spotted onto microscope slides, air dried, incubated with avidin-FITC (1:100) (Zymed) and BSA-rhodamine (1:30) (Difco) in PBS at 37° C., washed and examined by fluorescence microscopy.

[2] = system: adhesion of C. albicans germ tubes (UnoPP-1) to human buccal epithelial cells (BECs); test: Stabilized (covalent) adhesion of radiolabeled C. albicans germ tubes to human buccal epithelial cells; assay type: cell-based, Candida albicans
Protocol: Mass conversion of yeasts, radiolabeled with Tran^35S-label (ICN) (5 μCi/ml), to germ tubes (5×10^6/ml) was induced in prewarmed M199 (40 ml) for 2.5 hours at 37° C. No differences in the proportion of (>95%) germ tubes or in germ tube length were seen among strains. Washed germ tubes and BECs from a healthy donor, suspended in 300 μl of reaction buffer 3 (50 mM Tris-Cl pH 7.5, 10 mM CaCl2, 1 mM EDTA, 1 mM DTT), at a germ tube/BEC ratio of 100:1, were mixed, incubated for 1 hour at 37° C. followed by reaction termination with 100 mM EGTA (75 μl). The BEC donors understood the nature of the studies and consented to provide BECs. Radioactivity of BEC fractions was determined by scintillation counting after centrifugation on 50% Percoll gradients, and germ tubes per BEC was determined using the specific activity of each strain. Background counts, determined from gradients with germ tubes only, were less than 6% of counts for germ tube/BEC mixtures and were subtracted from counts of epithelial cell-germ tube mixtures. […]
Radiolabeled germ tubes of the control strain, UnoPP-1, were incubated with BECs at a ratio of 100:1 with or without 5 or 10 mM monodansylcadaverine in reaction buffer 3, supra. […] The cell mixtures were incubated for 1 hour at 37° C., and the number of germ tubes covalently attached to BECs were determined. […]

T1 sequence (P08587 whole entry): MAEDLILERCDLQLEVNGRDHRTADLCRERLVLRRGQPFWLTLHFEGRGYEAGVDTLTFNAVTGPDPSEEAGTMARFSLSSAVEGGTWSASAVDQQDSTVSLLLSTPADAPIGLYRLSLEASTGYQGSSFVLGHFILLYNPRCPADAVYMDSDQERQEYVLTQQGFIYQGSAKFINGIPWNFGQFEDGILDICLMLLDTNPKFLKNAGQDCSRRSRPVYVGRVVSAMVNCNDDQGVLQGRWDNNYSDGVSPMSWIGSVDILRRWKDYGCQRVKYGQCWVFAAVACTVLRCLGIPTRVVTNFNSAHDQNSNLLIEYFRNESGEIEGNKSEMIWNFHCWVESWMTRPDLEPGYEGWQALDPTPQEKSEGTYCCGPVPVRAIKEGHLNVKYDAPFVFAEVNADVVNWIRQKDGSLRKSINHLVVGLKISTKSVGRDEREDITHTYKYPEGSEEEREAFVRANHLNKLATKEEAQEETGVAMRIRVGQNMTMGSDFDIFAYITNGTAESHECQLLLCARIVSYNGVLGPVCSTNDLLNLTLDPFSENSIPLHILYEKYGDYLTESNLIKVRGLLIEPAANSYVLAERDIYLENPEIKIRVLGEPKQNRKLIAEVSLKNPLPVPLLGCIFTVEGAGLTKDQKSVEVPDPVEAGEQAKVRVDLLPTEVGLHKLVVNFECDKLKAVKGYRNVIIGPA

Structure (SMILES)	effect on transglutaminase-mediated fluorescence labelling of germ tubes [1]	stabilized adhesion of UnoPP-1 to BECs with transglutaminase inhibited ([2]; iodoacetamide 10 mM, BECs pretreated 15 minutes, CAH7-1A was 23% of UnoPP-1)	reduction of adhesion of germ tubes to BEC relative to DMSO control ([2]; 5 or 10 mM, UnoPP-1 germ tubes/BEC 100:1, 1 hour at 37° C., covalently attached germ tubes)
O=C(O)CN(CCOCCOCCN(CC(=O)O)CC(=O)O)CC(=O)O [EGTA]	inhibited		
NC(=O)CI [iodoacetamide]	inhibited	low level of stabilized adhesion of CAH7-1A was equivalent to that of UnoPP-1	
CN(C)c1cccc2c(S(=O)(=O)NCCCCCN)cccc12 [monodansylcadaverine]			approximately 87%

Reference: patent publication US7135182B2, “Inhibition of transglutaminase-mediated microbial interaction with a mammalian host” (priority 1998, dated 2006)
